Among the test systems are 786-0; ACHN; CCRF-CEM; EKVX; HCT-116; IGROV-1; KM-20L2; NCI-H23; SF-295; SF-539; TK-10; U-251; SNB-19; MDA-N; NCI-H226; NCI-H522; OVCAR-5; PC-3; SK-MEL-2; T47D.
What all share (test): NCI tumour cell line growth inhibition, 48 h

Here are results for eleven compounds from ChEMBL document CHEMBL1201862, “PubChem BioAssay data set” (2004).

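96-well plates; 48 h exposure; 5 concentrations. Endpoints by linear interpolation between flanking doses. Not reached: highest tested concentration assigned. Abbreviation: GI50, concentration required for 50% inhibition of growth.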 The source made the active and inactive calls. No stated cut-off is given here; in the data, active = GI50 up to about 1.1 µM and inactive = higher. Where only a bound is given, the exact number is not on record here.

Take `Cc1ccc(/C=C2\CCCCC2=O)cc1`: the GI50 with 786-0 was > 100 µM (inactive); in the assay on ACHN it was 48.1 µM (inactive); in the assay with CCRF-CEM it was 28.1 µM (inactive); in the assay on EKVX it was > 100 µM (inactive); in the assay with HCT-116, 43.4 µM (inactive); in the assay with IGROV-1, > 100 µM (inactive). Further, the GI50 with KM-20L2, in the assay with NCI-H23, in the assay with SF-295, with SF-539, in the assay with TK-10 and with U-251 was > 100 µM (inactive) throughout.
Take `COc1cc(Cl)c2c3c(c(C(=O)c4ccccc4)oc13)CCC2`: the GI50 in the assay on 786-0, in the assay with ACHN, in the assay with CCRF-CEM, with EKVX, in the assay with HCT-116 and in the assay with IGROV-1 was > 100 µM (inactive) throughout. The GI50 in the assay with KM-20L2, in the assay on NCI-H23, in the assay on SF-295, with SF-539, in the assay with SNB-19 and in the assay on TK-10 was > 100 µM (inactive) throughout. Further, in the assay on U-251, the GI50 was > 100 µM (inactive).
With `C=CCN(c1cc(O)c2c(c(C)cn2S(=O)(=O)c2ccccc2)c1[N+](=O)[O-])S(C)(=O)=O`, the GI50 is > 100 µM (inactive) with 786-0; 81.1 µM (inactive) in the assay with ACHN; > 100 µM (inactive) in the assay on CCRF-CEM; 76.9 µM (inactive) in the assay with EKVX; 59.2 µM (inactive) with HCT-116; > 100 µM (inactive) with IGROV-1. For the same compound, the GI50 in the assay with MDA-N is 36.9 µM (inactive); with NCI-H226, > 100 µM (inactive); with NCI-H23, > 100 µM (inactive); in the assay on NCI-H522 it was 65.9 µM (inactive); with OVCAR-5 it was > 100 µM (inactive); with PC-3, > 100 µM (inactive). The GI50 in the assay on SF-295 is 48.5 µM (inactive); in the assay on SF-539 it was > 100 µM (inactive); in the assay with SK-MEL-2, > 100 µM (inactive); in the assay on SNB-19, > 100 µM (inactive); in the assay with T47D, 40.7 µM (inactive); in the assay on TK-10 it was > 100 µM (inactive). Besides, the GI50 with U-251 was > 100 µM (inactive).
Regarding `C=C[C@]1(C)CC[C@]2(C)C(CC[C@@]3(C)C2C[C@H](O)[C@H](O)[C@@]3(C)O)C1` (stereo partly specified), the GI50 in the assay on 786-0, in the assay on ACHN, in the assay on CCRF-CEM, in the assay on EKVX, with HCT-116 and with IGROV-1 was > 100 µM (inactive) each time. Besides, the GI50 in the assay on MDA-N, in the assay with NCI-H226, in the assay on NCI-H23, with NCI-H522, in the assay with OVCAR-5 and in the assay with PC-3 was > 100 µM (inactive) in each case. The GI50 in the assay with SF-295, in the assay with SF-539, in the assay on SK-MEL-2, in the assay on SNB-19, in the assay with T47D and in the assay on TK-10 was > 100 µM (inactive) in each case. For the same compound, the GI50 in the assay with U-251 is > 100 µM (inactive).
With `OCCCCCCCCCCCOc1ccc(C2OCC3(CC=CCC3)CO2)cc1` (stereo unspecified), the GI50 was 13.8 µM (inactive) with 786-0; 17.5 µM (inactive) in the assay on ACHN; 11 µM (inactive) in the assay with CCRF-CEM; 10.6 µM (inactive) in the assay on EKVX; 15.8 µM (inactive) in the assay on HCT-116; 16.1 µM (inactive) in the assay on IGROV-1. For the same compound, the GI50 in the assay on MDA-N was 15.9 µM (inactive); in the assay on NCI-H226, 16.6 µM (inactive); in the assay on NCI-H23, 16.4 µM (inactive); in the assay with NCI-H522, 5.08 µM (inactive); in the assay with OVCAR-5, 19.3 µM (inactive); in the assay on PC-3, 4.07 µM (inactive). The GI50 with SF-295 is 17.6 µM (inactive); in the assay with SF-539 it was 19.1 µM (inactive); in the assay with SK-MEL-2 it was 38.1 µM (inactive); in the assay with SNB-19, 19.9 µM (inactive); in the assay with T47D, 13.3 µM (inactive); in the assay on TK-10, 16.9 µM (inactive). The GI50 with U-251 is 13.9 µM (inactive).
For the compound `C=Cc1ccccc1C1C(C(=O)OCC)=C(C)N=C2OC(C(=O)OC)C(=O)N21` (stereo unspecified), the GI50 with 786-0, in the assay on ACHN, in the assay with CCRF-CEM, with EKVX, in the assay with HCT-116 and with IGROV-1 was > 100 µM (inactive) throughout. Besides, the GI50 in the assay with MDA-N, in the assay with NCI-H226, with NCI-H23, with NCI-H522, in the assay with OVCAR-5 and with PC-3 was > 100 µM (inactive) each time. Also, the GI50 in the assay with SF-295, with SF-539, with SK-MEL-2, in the assay with SNB-19, in the assay on T47D and in the assay with TK-10 was > 100 µM (inactive) in each case. The GI50 in the assay on U-251 was > 100 µM (inactive).
`CC(C)=C[C@@H]1O[C@H](O)[C@@H]([C@H]2CC[C@@]3(C)[C@@H]4CC[C@H]5C(C)(C)C(=O)CC[C@@]56C[C@@]46CC[C@]23C)[C@@H]1O`: the GI50 with 786-0 was 14.3 µM (inactive); with ACHN, 18.1 µM (inactive); in the assay on CCRF-CEM it was 9.93 µM (inactive); with EKVX it was 18.5 µM (inactive); in the assay on HCT-116, 15.2 µM (inactive); in the assay on IGROV-1 it was 19.5 µM (inactive). In addition, the GI50 in the assay on MDA-N is 15.9 µM (inactive); with NCI-H226, 11.7 µM (inactive); in the assay on NCI-H23, 16.4 µM (inactive); with NCI-H522, 13.1 µM (inactive); with OVCAR-5, 23.1 µM (inactive); in the assay on PC-3 it was 13 µM (inactive). Further, the GI50 in the assay on SF-295 is 16.1 µM (inactive); with SF-539 it was 12.4 µM (inactive); with SK-MEL-2, 20 µM (inactive); with SNB-19, 20.9 µM (inactive); in the assay on T47D, 14.6 µM (inactive); in the assay with TK-10 it was 16 µM (inactive). In addition, in the assay with U-251, the GI50 was 17 µM (inactive).
On to `C/C(=N\NC(=S)Nc1ccc([N+](=O)[O-])cc1)c1nc2cccnc2[nH]1`, for which the GI50 is 0.748 µM (active) in the assay on 786-0; 0.378 µM (active) in the assay on ACHN; 0.381 µM (active) in the assay with CCRF-CEM; 0.227 µM (active) in the assay on EKVX; 0.515 µM (active) in the assay with HCT-116; 0.942 µM (active) in the assay with IGROV-1. For the same compound, the GI50 is 1.78 µM (inactive) in the assay on MDA-N; 0.504 µM (active) in the assay on NCI-H226; 0.713 µM (active) with NCI-H23; 1.06 µM (active) in the assay on NCI-H522; 1.08 µM (active) in the assay with OVCAR-5; 1.24 µM (inactive) in the assay with PC-3. In addition, the GI50 in the assay on SF-295 was 0.352 µM (active); in the assay with SF-539, 0.288 µM (active); in the assay with SK-MEL-2, 1.31 µM (inactive); with SNB-19, 0.824 µM (active); in the assay with T47D, 0.693 µM (active); with TK-10 it was 0.327 µM (active). In addition, the GI50 in the assay with U-251 is 0.251 µM (active).
As to `O=C1C([P+](c2ccccc2)(c2ccccc2)c2ccccc2)=C([O-])C(=Cc2ccc(Cl)c(Cl)c2)C([O-])=C1[P+](c1ccccc1)(c1ccccc1)c1ccccc1`, the GI50 in the assay on 786-0 is 2.14 µM (inactive); in the assay with ACHN, 2.8 µM (inactive); in the assay with CCRF-CEM it was 0.465 µM (active); in the assay with EKVX it was 2.47 µM (inactive); in the assay on HCT-116, 1.68 µM (inactive); in the assay with IGROV-1, 2.62 µM (inactive). The GI50 was 1.9 µM (inactive) in the assay with MDA-N; 3.44 µM (inactive) in the assay on NCI-H226; 3.51 µM (inactive) in the assay with NCI-H23; 1.8 µM (inactive) with NCI-H522; 3.56 µM (inactive) with OVCAR-5; 1.71 µM (inactive) in the assay on PC-3. In addition, the GI50 in the assay with SF-295 was 2.65 µM (inactive); with SF-539, 2.55 µM (inactive); in the assay on SK-MEL-2, 2.44 µM (inactive); in the assay with SNB-19, 3.16 µM (inactive); with T47D it was 3.37 µM (inactive); in the assay with TK-10, 2.71 µM (inactive). The GI50 in the assay with U-251 is 2.47 µM (inactive).
Turning to `Cc1nn(C(=O)c2ccc(Cl)cc2)c2c1C(c1ccc([N+](=O)[O-])cc1)SC(=N)N2` (stereo unspecified), the GI50 in the assay with 786-0, with ACHN, in the assay with CCRF-CEM, in the assay on EKVX, with HCT-116 and in the assay with IGROV-1 was > 10 µM (inactive) throughout. The GI50 with MDA-N, in the assay on NCI-H226, with NCI-H23, in the assay with NCI-H522, in the assay on OVCAR-5 and with PC-3 was > 10 µM (inactive) throughout. Further, the GI50 with SF-295, in the assay on SF-539, in the assay with SK-MEL-2, in the assay on SNB-19, in the assay with T47D and in the assay with TK-10 was > 10 µM (inactive) each time. In addition, the GI50 with U-251 was > 10 µM (inactive).
Consider `CCCC1C(CC)C(NC)C(C#N)(C#N)C1(C#N)C#N` (stereo unspecified), for which the GI50 in the assay with 786-0 is 15.4 µM (inactive); in the assay on ACHN, 18.1 µM (inactive); in the assay on CCRF-CEM, 13.1 µM (inactive); in the assay on EKVX, 25.2 µM (inactive); in the assay with HCT-116, 15.1 µM (inactive); in the assay with IGROV-1, 15.7 µM (inactive). The GI50 in the assay on MDA-N was 16 µM (inactive); in the assay with NCI-H226, 2.88 µM (inactive); in the assay on NCI-H23 it was 21.4 µM (inactive); with NCI-H522, 13.9 µM (inactive); in the assay with OVCAR-5 it was 33.7 µM (inactive); in the assay on PC-3 it was 18.1 µM (inactive). Also, the GI50 with SF-295 was 17.2 µM (inactive); in the assay on SF-539, 16.8 µM (inactive); in the assay on SK-MEL-2 it was 18.9 µM (inactive); with SNB-19, 22.5 µM (inactive); in the assay with T47D, 14.5 µM (inactive); in the assay on TK-10, 16.9 µM (inactive). The GI50 with U-251 was 28.1 µM (inactive).
